The test system of data set [1] is hESC-derived hepatocytes.
Procedure: Following the basic protocol A, differentiating hES cell derived hepatic progenitors and hepatocyte-like cells cultured on a Gelatin-based coating were treated with 1 μM 9-cis retinoic acid for 5, 24 or 48 hr exposures on days 21, 22 or 23 of the protocol (i.e. on day 7, 8 or 9 of the differentiation and maturation phase; FIG. 2 A, B, D), repeated 5 hr exposures on days 11, 16, 23, 25 and 30 of the protocol (i.e. on day 4 of the pre-hepatic phase and days 2, 9, 11 and 16 of the differentiation and maturation phase; FIG. 2 C), or long term/continuous treatment from day 14 and onwards (i.e.starting on day 1 of the differentiation and maturation phase; FIG. 2D).
Immediately after end of the RA treatment, the cell cultures are subjected to a CYP activity assay according to the following protocol: Cells are washed twice with warm Williams medium E w/o phenol red (+0.1% PEST). Then CYP activity assay, consisting of warm Williams medium E w/o phenol red (+0.1% PEST), 2 mM L-Glutamine, 25 mM HEPES, 26 μM Phenacetin (model substrate for CYP1A), 9 μM Diclofenac (model substrate for CYP2C9) and 3 μM Midazolam (model substrate for CYP3A), is added to the cells (e.g. 220 μl/24 well) and incubated for 16 hr at 37° C. Then supernatant is collected and centrifuged for 20 min at 10.000 rcf at 4° C. Subsequently, 120 μl of the supernatant is transferred into a 96 well plate which is sealed with a tight seal tape and stored at −20 or −80° C. until LC/MS-analysis of metabolite formation: Acetaminophen (Paracetamol) for CYP1A, OH-Diclofenac for CYP2C9 and OH-Midazolam for CYP3A.
Data set [2] relates to hepatocyte-like cells derived from hES cells. Briefly: HNF4α TaqMan assays: HNF4α isoform expression after 9 cis-retinoic acid (Example 3). The format is cell-based, human. To be noted: for expression of the adult HNF4a1-3 isoforms / expression of the fetal HNF4a4-9 isoforms: 1 or 2 μM. From the text:
Three different HNF4α-TaqMan assays were used for analysis of HNF4α expression: one assay detecting all 9 HNF4α isoforms, one assay detecting isoforms 1-3 (including the adult isoforms 1 and 2) and one assay detecting isoforms 4-9 (including the fetal isoforms 7 and 8). Isoforms 3, 4, 5, 6 and 9 are not expressed at all in vivo or at very low levels and can therefore be neglected.
Background: In qPCR the cycle at which signal appears reflects the starting amount.

Data set [3] deals with hES cell derived hepatocyte-like cells. Briefly: qRT-PCR gene expression after RA treatment, basic protocol A (Example 5).
Procedure: Following the basic protocol A, hES cell derived hepatocyte-like cells cultured on a Gelatin-based coating were treated with 1 μM 9-cis retinoic acid for 5 hr on day 21 of the protocol (i.e. on day 7 of the differentiation and maturation phase) or 24 hr on day 22-23 of the protocol (i.e. on day 8-9 of the differentiation and maturation phase).
Cells were harvested on day 21 or 23 of the protocol (i.e. on day 7 or 9 of the differentiation and maturation phase) and gene expression was analysed using qRT-PCR, normalised to the house-keeping gene CREBBP and the results presented as relative quantification normalised to a calibrator (FIG. 3.)
The subject of the next data set is RXR. To be noted: cited from earlier work; for affinity of binding to RXR: compared with 9-cis-retinoic acid (Heyman et al.).
Data set [4] concerns hESC-derived hepatocytes. Description: CYP activity assay, early 5-aza-2-deoxycytidine plus late RA, Kenpaullone and matrix overlay (Example 8). The format is cell-based, human. The note with it: additional effect of treatment with the DNA demethylation agent on day 2-3.
Procedure: (§1) Following the basic protocols C (hESC-derived hepatocytes) or D (hiPSC-derived hepatocytes), differentiating hES and hiPS cells in the pre-endodermal phase were treated with 10 nM of the DNA demethylating agent 5-aza-2-deoxycytidine for 24 hr on day 2 to 3 of the protocol.
(§2) Later in the protocol, hPS cell derived hepatic progenitor cells and hepatocyte-like cells cultured on a Fibronectin-based coating were treated with continuous/long term treatment with 0.2 μM 9cis-RA and 0.5 μM Kenpaullone starting on day 14 of the protocol (i.e. on day 1 of the differentiation and maturation phase) and received thin Fibronectin-Collagen I-overlays on day 14 and 16 of the protocol (i.e. on day 1 and 3 of the differentiation and maturation phase) and is refreshed thereafter once a week on day 23, 30, 37 and so on (i.e. on day 9, 16, 23 and so on of the differentiation and maturation phase).
(§3) For analysing functional expression of CYP enzymes on day 36 (i.e. on day 22 of the maturation step; FIG. 10), the cell cultures are subjected to a CYP activity assay according to the following protocol: Cells are washed twice with warm Williams medium E w/o phenol red (+0.1% PEST). […]
Data set [5] relates to hiPSC-derived hepatocytes. Described as above. To be noted: additional effect of treatment with the DNA demethylation agent on day 2-3. The format is cell-based, human.
Procedure: as §1, §2, §3
Data set [6] concerns DE derived from hPSC lines P11032, SA181 and P11012. Description: qRT-PCR of stem cell and DE markers in DE, 5-aza-2-deoxycytidine or 5-azacytidine (Example 12). The note with it: 10 nM 5-aza-2-deoxycytidine or 1 μM 5-azacytidine on day 2-3; day 7. The format is cell-based, human. On the procedure:
Following the basic protocols C (P11032, SA181) or D (P11012), cells derived from 3 different hPSC lines were treated with either 10 nM 5-aza-2-deoxycytidine or 1 μM 5-azacytidine on day 2-3 during the pre-endodermal phase.

The subject of the next data set is RAR. The note with it: Allenby et al.; Idres et al.; cited from earlier work.
Data set [7] relates to hiPSC-derived hepatocytes. Description: CYP activity assay, 9cis-RA or other RXR- and RAR-agonists (Example 15). To be noted: instead of 0.2 μM 9cis-RA: 0.5 μM ATRA, 5 μM AM580, 0.2 μM 13cis-RA, 5 μM LGD1069, 5 μM LG100268 or 5 μM SR11237; with Kenpaullone, overlay, early 5-aza-2-deoxycytidine; day 36. The format is cell-based, human. On the procedure:
Some experimental groups were treated with 0.5 μM all trans-retinoic acid (ATRA), 5 μM AM580, 0.2 μM 13cis-RA, 5 μM LGD1069, 5 μM LG100268 or 5 μM SR11237 instead of 0.2 μM 9cis-RA.

Setting [8] is: 24-, 48 hr-exposure and continuous RA-treatment.
Where [9] appears, read: 5 hr RA-exposure, day 23, analysed immediately after the exposure.
[10] abbreviates: continuous/long-term RA treatment versus 5 and 24 hr RA exposures.

Regarding 9-cis-retinoic acid [RA], in the data set on hESC-derived hepatocytes [1], the CYP1A activity entry is recorded as “strongest increase”; the “CYP1A, 2C9 and 3A activities” value is recorded as “increased”; the “CYP1A, CYP2C9 and 3A activities” value was “increase”; the “CYP1A-, 2C9- and 3A-activity” value is on record as “significant increase”. For the same compound, in the data set on hESC-derived hepatocytes [1], the CYP1A-activity result is on record as “increase”; the CYP3A activity entry is “strongest increase”; the “effect on CYP1A and 2C9 activity” value was “stronger increasing effect”. In data set [2] (setting [8]), the “expression of the adult HNF4a1-3 isoforms” value is listed as “slightly increase” and the “expression of the fetal HNF4a4-9 isoforms” value is listed as “slightly decrease”. Also, in data set [2] (setting [9]), the “expression of the adult HNF4a1-3 isoforms” value was “strongly increase” and the “expression of the fetal HNF4a4-9 isoforms” value is “increase”. For the same compound, the “expression of fetal HNF4α isoform (4-9)” value in data set [2] (5 hr exposure with 1 μM RA, 7 days later) was “raised over control values”. Moreover, in data set [2] (5 hr exposure with 1 μM RA, 7 days later, vs untreated control cells), the “expression of HNF4α isoforms 1-3” value is listed as “slightly lower”. The “expression of HNF4α isoforms 1-3” value in [2] (5 hr exposure with 1 μM RA, immediately after the exposure) was “increases”. In addition, in [2] (5 hr exposure with 1 μM RA, immediately after the exposure, vs control), the “expression of HNF4α isoforms 4-9” value is reported as “slightly lower”. Also, in [2] (5 hr exposures), the “ratio of HNF4a 1-3 isoforms/4-9 isoforms” value was “do not increase”. Besides, in [2] (24 hr and 48 hr RA-exposure and long term/continuous treatment), the “ratio of HNF4a 1-3 isoforms/4-9 isoforms” value is “increase the 1-3/4-9 ratio of hESC-derived hepatocytes to levels similar as in hp hep”. Moreover, the “mRNA expression of the adult hepatic gene CYP3A4” value in data set [3] (5 hr RA-exposure (1 μM) on day 21, immediately after and 2 and 7 days later (day 23 and 30)) is “increase”. Moreover, the “decrease of expression of the fetal hepatic gene CYP3A7” value in data set [3] (5 hr exposure on day 21, 2 days later on day 23) is listed as “strongly”. The “decrease of expression of the fetal hepatic gene CYP3A7” value in data set [3] (5 hr exposure on day 21, immediately after the exposure on day 21) was “slightly”. Also, the “increase of mRNA expression of the adult hepatic gene PXR” value in data set [3] (5 hr exposure on day 21, measured on day 21) is listed as “not immediately after the 5 hr exposure”. For the same compound, the “mRNA expression of the adult hepatic gene PXR” value in data set [3] (5 hr exposure on day 21, measured on day 23) is “increases”. In addition, the “mRNA expression of the adult hepatic gene PXR” value in [3] (24 hr RA-exposure on day 22-23) is on record as “increases”. Besides, the “adult CYP3A4 expression” value in [3] (24 hr RA-exposure on day 22-23, day 23) is “immediate up-regulation”. Also, the “expression of the fetal hepatic gene CYP3A7” value in data set [3] (24 hr RA-exposure on day 22-23, immediately after the exposure on day 23) is given as “strongly decreases”. In data set [3] (setting [10]), the “fetal hepatic gene α-Fetoprotein (AFP) expression” value is given as “stronger down-regulation” and the “mRNA expression of the adult hepatic gene CAR” value is “higher increase”. Further, in the data set with RXR (Allenby et al., Idres et al.), the “binding to and activation of RXR and RAR” value was “binds to and activates both RXR and RAR”.

Regarding `Nc1ncn([C@H]2C[C@H](O)[C@@H](CO)O2)c(=O)n1` [5-aza-2-deoxycytidine], the CYP2C9 activity entry (with hESC-derived hepatocytes [4]; in data set [5]) was “No additional increase” throughout.

For `Nc1ncn([C@@H]2O[C@H](CO)[C@@H](O)[C@H]2O)c(=O)n1` [5-azacytidine], in data set [6], the “Oct4 and Nanog mRNA” value is “significantly decreased”; the “mRNA expression of the DE markers Sox17 and Cxcr4” value is “No significant changes”.

In the case of `CC1=C(\C=C/C(C)=C/C=C/C(C)=C/C(=O)O)C(C)(C)CCC1` [7-cis retinoic acid], in the data set on RAR, the “binding to RAR and RXR” value is listed as “specifically bind RAR, but not to RXR”.

Take `CC1=C(/C=C/C(C)=C/C=C\C(C)=C\C(=O)O)C(C)(C)CCC1` [11-cis-retinoic acid]: the “binding to RAR and RXR” value in the data set on RAR is “specifically bind RAR, but not to RXR”. Also, the “affinity of binding to RXR” value with RXR is given as “much lower affinity”.

Take `CC1=C(/C=C/C(C)=C/C=C/C(C)=C\C(=O)O)C(C)(C)CCC1` [13cis RA, 13-cis-retinoic acid]: the “binding to RAR and RXR” value in the data set with RAR is reported as “specifically bind RAR, but not to RXR”. Further, the “affinity of binding to RXR” value in the data set on RXR is “much lower affinity”.

As to `CC1=C(/C=C/C(C)=C/C=C/C(C)=C/C(=O)O)C(C)(C)CCC1` [ATRA, all trans-retinoic acid], the “binding to RAR and RXR” value in the data set with RAR was “specifically bind RAR, but not to RXR”. Further, in the data set on RXR, the “affinity of binding to RXR” value was “much lower affinity”. Moreover, in data set [7], the CYP2C9 activity result was “slightly smaller increase”.

`C=C(c1ccc(C(=O)O)cc1)c1cc2c(cc1C)C(C)(C)CCC2(C)C` [LGD1069]: in data set [7], the CYP2C9 activity result is given as “slightly smaller increase”.

Values taken from patent US10294457B2, “Maturation of hepatocyte-like cells derived from human pluripotent stem cells” (Takara Bio Europe AB, priority 2012, dated 2019).
